Tested on: client-owned horses
Test: Owner assessment of change in quality of life (QOL) in a randomized, double-blinded, placebo-controlled clinical study
Assay type: in vivo, horse
Text: The amelioration of the QOL in equines can be measured by an assessment, which can be performed for example by the owner or the veterinarian or by an animal care taker or by any other person, preferably by the owner. The owners of the horses are asked to assess the quality of life of their horses over a certain period of time, e.g. several days, such as 10, 14 or 21 days, compared to a reference time point, e.g. day 0. For assessment of QOL the owner is asked to consider certain QOL parameters such as attitude, energy level, human interactions, general behavior using a rating scheme. This assessment preferably relates to a certain period of time such as for example the last 24 hours in comparison to a previous point in time for example day 0. One possible rating scheme is to ask whether QOL has improved, stayed the same or worsened compared to day 0.
The study is conducted as a multicenter prospective, randomized, double-blinded, placebo-controlled clinical study with parallel group design according to Good Clinical Practice (GCP) guidelines with client-owned horses.
Horses are examined before (Day 0) and at the end of treatment with the study drug (Day 10±1) by the study investigators. Physical examination, efficacy and QOL assessment, as well as blood sample collection is performed during the visits. The owners of included horses are also contacted by telephone on Day 5. […]

Compound: CC(C)C(=O)OCC(=O)[C@@]12O[C@H](C3CCCCC3)OC1CC1C3CCC4=CC(=O)C=C[C@]4(C)C3[C@@H](O)C[C@@]12C (stereo partly drawn) [ciclosenide, (1 ip,16a)-16,17-[[(R)-Cyclohexylmethylene]bis(oxy)]-11-hydroxy-21-(2-methyl-1-oxopropoxy)pregna-1,4-diene-3,20-dione]
- percentage of owners acknowledging an improvement in their horse's quality of life compared to Day 0 (after 10(±1) days of treatment, 8 actuations twice daily for 5 days, then 12 actuations once daily for 5 days): 69.33%
- percentage of owners reporting that the quality of life of their horse improved compared to Day 0 (after five days of treatment, inhaled via EquiHaler, 8 actuations (343 μg each) twice daily): 60.19%
